What all share (type): functional, organism-based
Assay [1] has as its system Arion subfuscus. Put plainly: Molluscicidal activity against Arion subfuscus in Chinese cabbage at 0.8 g/m2 after 21 to 28 days by miniplot trial analysis in presence of 65.8 mm rainfall.
For assay [2], the system named is Arion subfuscus. Put plainly: Molluscicidal activity against Arion subfuscus in Chinese cabbage at 0.8 g/m2 after 7 to 42 days.
In assay [3] the test system is Arion subfuscus. Description: Molluscicidal activity against Arion subfuscus in Chinese cabbage at 0.8 g/m2 after 7 to 14 days by miniplot trial analysis in presence of 135 mm rainfall.
The test system of assay [4] is Deroceras reticulatum. Put plainly: Molluscicidal activity against Deroceras reticulatum in Chinese cabbage at 0.8 g/m2 after 21 to 42 days by miniplot trial analysis in presence of 135 mm rainfall.
Assay [5] concerns Arion subfuscus. Description: Molluscicidal activity against Arion subfuscus in Chinese cabbage at 0.8 g/m2 after 7 to 42 days by miniplot trial analysis in presence of 17 mm rainfall.
The next assay has as its system Deroceras panormitanum. Put plainly: Molluscicidal activity against Deroceras panormitanum assessed as reduction of slug number at 0.8 g/m2 after 42 days.
The subject of assay [6] is Deroceras reticulatum. Description: Molluscicidal activity against Deroceras reticulatum in Chinese cabbage at 0.8 g/m2 after 7 to 42 days by miniplot trial analysis in presence of 17 mm rainfall.
In assay [7] the test system is Arion subfuscus. Put plainly: Molluscicidal activity against Arion subfuscus in Chinese cabbage at 0.8 g/m2 after 7 days by miniplot trial analysis in presence of 135 mm rainfall.
In assay [8] the test system is Deroceras reticulatum. Description: Molluscicidal activity against Deroceras reticulatum in Chinese cabbage at 0.8 g/m2 after 7 to 28 days by miniplot trial analysis in presence of 65.8 mm rainfall.
Assay [9] relates to Deroceras reticulatum. Description: Molluscicidal activity against Deroceras reticulatum in Chinese cabbage at 0.8 g/m2 after 7 to 42 days.
For assay [10], the system named is Deroceras reticulatum. Description: Molluscicidal activity against Deroceras reticulatum assessed as reduction of slug number at 0.8 g/m2 after 42 days.
Assay [11] concerns Deroceras reticulatum. Description: Molluscicidal activity against Deroceras reticulatum in Chinese cabbage at 0.8 g/m2 after 7 to 42 days by miniplot trial analysis in presence of 65.4 mm rainfall.
Assay [12] concerns Arion subfuscus. Put plainly: Molluscicidal activity against Arion subfuscus in Chinese cabbage at 0.8 g/m2 after 7 to 14 days by miniplot trial analysis in presence of 65.8 mm rainfall.
The test system of assay [13] is Deroceras reticulatum. Description: Molluscicidal activity against Deroceras reticulatum in Chinese cabbage at 0.8 g/m2 after 7 days by miniplot trial analysis in presence of 135 mm rainfall.
In assay [14] the test system is Arion subfuscus. Description: Molluscicidal activity against Arion subfuscus in Chinese cabbage at 0.8 g/m2 after 21 to 42 days by miniplot trial analysis in presence of 135 mm rainfall.
The subject of assay [15] is Arion subfuscus. Description: Molluscicidal activity against Arion subfuscus in Chinese cabbage at 0.8 g/m2 after 7 to 42 days by miniplot trial analysis in presence of 65.4 mm rainfall.
The test system of assay [16] is Deroceras reticulatum. Put plainly: Molluscicidal activity against Deroceras reticulatum in Chinese cabbage at 0.8 g/m2 after 7 to 14 days by miniplot trial analysis in presence of 135 mm rainfall.
In assay [17] the test system is Arion subfuscus. Description: Molluscicidal activity against Arion subfuscus assessed as reduction of slug number at 0.8 g/m2 after 42 days.
In assay [18] the test system is Arion subfuscus. Description: Molluscicidal activity against Arion subfuscus in Chinese cabbage at 5 g/m2 after 7 to 42 days by miniplot trial analysis in presence of 17 mm rainfall.
Assay [19] deals with Arion subfuscus. Put plainly: Molluscicidal activity against Arion subfuscus in Chinese cabbage at 5 g/m2 after 21 to 28 days by miniplot trial analysis in presence of 65.8 mm rainfall.
Assay [20] relates to Deroceras reticulatum. Put plainly: Molluscicidal activity against Deroceras reticulatum in Chinese cabbage at 5 g/m2 after 7 to 28 days by miniplot trial analysis in presence of 65.8 mm rainfall.
Assay [21] relates to Deroceras reticulatum. Put plainly: Molluscicidal activity against Deroceras reticulatum in Chinese cabbage at 5 g/m2 after 7 to 42 days by miniplot trial analysis in presence of 17 mm rainfall.
Assay [22] relates to Arion subfuscus. Description: Molluscicidal activity against Arion subfuscus in Chinese cabbage at 5 g/m2 after 7 to 14 days by miniplot trial analysis in presence of 65.8 mm rainfall.

Activity calls are given as the source filed them. The calls are words filed in the database; no cut-off is given here.

On to `CC1OC(C)OC(C)OC(C)O1` (stereo not drawn), for which the result with Arion subfuscus [1], with Deroceras panormitanum, with Deroceras reticulatum [10] and in the assay with Arion subfuscus [17] was inactive. Also, the result in the assay on Arion subfuscus [2], with Arion subfuscus [3], with Deroceras reticulatum [4], in the assay on Arion subfuscus [5], in the assay with Deroceras reticulatum [6] and in the assay on Arion subfuscus [7] was Active. For the same compound, the result in the assay on Deroceras reticulatum [8], in the assay on Deroceras reticulatum [9], with Deroceras reticulatum [11], in the assay with Arion subfuscus [12], in the assay with Deroceras reticulatum [13] and in the assay on Arion subfuscus [14] was Active. Besides, the result in the assay with Arion subfuscus [15] and in the assay on Deroceras reticulatum [16] was Active.

In the case of IRON PHOSPHATE, the outcome with Arion subfuscus [18], in the assay with Deroceras reticulatum [20], with Deroceras reticulatum [21] and in the assay on Arion subfuscus [22] was Active. The outcome in the assay on Arion subfuscus [19] was inactive.
